Assay results from patent publication EP4710949A1, “LYOPHILIZED PREPARATION, LYOPHILIZED SOLUTION, METHODS FOR PRODUCING SAME, AND LIQUID AGENT” (Goryo Chemical, Inc., priority 2023, dated 2024).
Converted amounts (≈) assume the structure as drawn. “And” between values parts separate entries of the source, which are not always exact repeats. Equal values may be shown once.

Key:
[1] = Dissolution test of Compound A (Test Example 1); type: physicochemical; settings: 0.03% ps20, pH 7; 0.03 wt% PS20 solution (phosphate buffer)
Procedure: (§1) ·Column: Meteoric Core C8, 5 µm, 4.6 mm×150 mm (YMC Co., Ltd.) ·Column temperature: 25°C ·Feeding amount: 1.0 mL/min. ·Wavelength: 254 nm ·Mobile phase A: water/TFA (1,000:1), Mobile phase B: acetonitrile/TFA (1,000:1) ·Feeding of mobile phase Table 1
1 Milligram of Compound A and 10 mL of a 6.55 mM phosphate buffer (pH: 7) containing 0 wt% to 0.03 wt% of polysorbate 20 (FUJIFILM Wako Pure Chemical Corporation, hereinafter referred to as "PS20") or an aqueous solution of NaH2PO4 (0.33 mg/mL) containing 0 wt% to 0.03 wt% of PS20 were loaded into a glass vial having a volume of 20 mL, and air inside the vial was purged with nitrogen. The vial was loaded into Aluminum Lamizip, and the vial was shaken overnight. The phosphate buffer was prepared by using NaH2PO4 and Na2HPO4. The mixture was filtered with a PVDF filter (Millex-GV, 0.22 µm, PVDF, 4 mm), and the solution after 10 drops of its initial flow was collected. Thus, solutions having formulations 1 to 8 were obtained. The concentrations of Compound A in the resultant solutions were calculated by the HPLC measurement of the solutions.

[2] = Reconstitution of lyophilized preparation of Compound A in physiological saline (Test Example 8); type: physicochemical
Procedure: as §1
Physiological saline (physiological salt solution "OTSUKA NORMAL SALINE") was added to a lyophilized preparation produced according to the same formulation as the formulation 32 except the concentration of Compound A in the lyophilization solution, and the preparation was dissolved in the saline so that a liquid amount was 5 mL. Thus, a reconstituted solution (liquid preparation) of Compound A was obtained. The concentration of Compound A in the reconstituted solution was calculated by HPLC measurement, and the content of Compound A was calculated. […]

In the case of `COCC(=O)N[C@@H](CC(C)C)C(=O)N[C@@H](CCSC)C(=O)Nc1ccc2c(c1)Oc1cc(N)ccc1C21OCc2ccccc21` (some centres unmarked) [Compound A], the solubility [1] is reported as 12.4 µg/mL (≈ 19.6 µM), the “measured value of the concentration of Compound A” value ([2]; lyophilization solution used in the production of the lyophilized preparation (same formulation as formulation 32 except Compound A concentration)) is reported as 149.2 µg/mL and the “appearance of the reconstituted solution” value ([2]; lyophilized preparation dissolved in physiological saline, 5 mL) is reported as “clear and free of visible particles”. The “Final concentration of Compound A” value ([2]; reconstituted solution, 5 mL physiological saline, lyophilized preparation as formulation 32 except Compound A concentration) was 29.9 µg/mL and 47.2 µM and the “Content of Compound A (%)” value ([2]; reconstituted solution, 5 mL physiological saline, ratio to content in lyophilization solution) was 100.1%.
